Legend:
PI3Kα = PI3Kα (Homo sapiens (Human), UniProt P42336); settings: read-out: PI3Kα AlphaScreen ® Ki
[1] = system: phosphorylation of Akt at Serine 473 in U87 MG cells; experiment: cells; settings: Homo sapiens, U-87 MG, 2 h, read-out: U87Cell IC50, pAkt (Ser 473), U87 MG cells, two hours with compound

PI3Kα, sequence (P42336 whole entry): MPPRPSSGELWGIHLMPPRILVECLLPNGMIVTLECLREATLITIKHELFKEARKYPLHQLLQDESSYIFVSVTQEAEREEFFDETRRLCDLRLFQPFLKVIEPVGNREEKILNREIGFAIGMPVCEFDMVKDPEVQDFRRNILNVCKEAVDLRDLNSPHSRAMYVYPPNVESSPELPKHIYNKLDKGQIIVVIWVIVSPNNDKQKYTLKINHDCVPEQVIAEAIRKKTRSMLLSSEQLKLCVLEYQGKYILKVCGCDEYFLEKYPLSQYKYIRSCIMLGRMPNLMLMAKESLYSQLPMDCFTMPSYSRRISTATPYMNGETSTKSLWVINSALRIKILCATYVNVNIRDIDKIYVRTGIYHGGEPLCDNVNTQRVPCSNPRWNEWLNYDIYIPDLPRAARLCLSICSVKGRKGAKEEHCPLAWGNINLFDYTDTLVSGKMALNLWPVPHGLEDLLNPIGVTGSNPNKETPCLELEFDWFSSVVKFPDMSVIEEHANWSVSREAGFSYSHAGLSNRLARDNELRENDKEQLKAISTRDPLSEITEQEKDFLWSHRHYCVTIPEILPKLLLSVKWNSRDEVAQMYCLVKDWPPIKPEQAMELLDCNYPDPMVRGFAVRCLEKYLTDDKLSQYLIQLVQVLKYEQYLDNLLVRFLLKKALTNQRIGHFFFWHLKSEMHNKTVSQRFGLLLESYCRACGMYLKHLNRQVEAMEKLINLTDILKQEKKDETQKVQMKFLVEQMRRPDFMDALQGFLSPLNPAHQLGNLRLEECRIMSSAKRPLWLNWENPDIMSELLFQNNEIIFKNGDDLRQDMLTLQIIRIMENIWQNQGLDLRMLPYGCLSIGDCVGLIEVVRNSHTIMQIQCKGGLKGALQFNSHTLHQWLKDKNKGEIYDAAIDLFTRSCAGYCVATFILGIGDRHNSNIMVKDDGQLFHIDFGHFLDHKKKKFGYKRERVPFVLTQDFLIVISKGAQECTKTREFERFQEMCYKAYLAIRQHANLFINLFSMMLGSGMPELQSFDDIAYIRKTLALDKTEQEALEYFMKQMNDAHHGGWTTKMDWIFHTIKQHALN
PI3Kα, sequence (P27986 whole entry partner): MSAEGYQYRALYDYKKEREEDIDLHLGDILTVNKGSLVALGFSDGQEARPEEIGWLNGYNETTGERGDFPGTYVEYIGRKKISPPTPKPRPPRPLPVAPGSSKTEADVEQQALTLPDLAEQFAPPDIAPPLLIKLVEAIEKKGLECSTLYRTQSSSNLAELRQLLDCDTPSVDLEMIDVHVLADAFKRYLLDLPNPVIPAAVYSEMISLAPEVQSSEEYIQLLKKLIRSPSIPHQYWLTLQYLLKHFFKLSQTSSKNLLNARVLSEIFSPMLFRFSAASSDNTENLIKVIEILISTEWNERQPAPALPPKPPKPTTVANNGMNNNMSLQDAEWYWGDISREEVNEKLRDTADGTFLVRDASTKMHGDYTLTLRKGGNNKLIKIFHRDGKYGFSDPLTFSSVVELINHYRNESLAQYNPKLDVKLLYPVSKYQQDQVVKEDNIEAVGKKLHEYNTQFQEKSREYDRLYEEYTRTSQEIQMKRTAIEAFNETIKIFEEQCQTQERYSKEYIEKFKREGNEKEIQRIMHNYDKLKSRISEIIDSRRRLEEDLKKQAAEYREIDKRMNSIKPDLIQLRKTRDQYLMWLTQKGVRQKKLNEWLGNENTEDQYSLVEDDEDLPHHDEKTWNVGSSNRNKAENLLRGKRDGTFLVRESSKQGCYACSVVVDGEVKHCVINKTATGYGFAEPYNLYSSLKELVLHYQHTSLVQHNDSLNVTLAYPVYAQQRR

| Compound | Ki (PI3Kα) [µM] | IC50 [1] [µM] |
| --- | --- | --- |
| COc1ncc(Nc2ncc([C@@H](C)N3CCOCC3)cc2-c2nc(C)nc(N)n2)cc1F (single isomer, unassigned) [Example 291] | 0.037 | 0.007 |
| Cc1nc(N)nc(-c2cc([C@H](C)N3CCOCC3)cnc2Nc2cnc(Cl)c(NS(C)(=O)=O)c2)n1 (single isomer, unassigned) [Example 372] | 0.005 | 0.004 |
| Cc1nc(N)c(F)c(-c2cccnc2Nc2cccc3[nH]ncc23)n1 [Example 29, N-(3-(6-Amino-5-Fluoro-2-Methylpyrimidin-4-yl)Pyridin-2-yl)-1H-Indazol-4-Amine] | 0.802 |  |
| COc1ccc(Nc2ncc(CN3CCN(S(C)(=O)=O)CC3)cc2-c2ncnc(C)n2)cn1 [Example 34, N-(6-methoxypyridin-3-yl)-3-(4-methyl-1,3,5-triazin-2-yl)-5-((4-(methylsulfonyl)piperazin-1-yl)methyl)pyridin-2-amine] | 1.58 | > 10 |
| Cc1nc(N)nc(-c2cc(CN3CCN(S(C)(=O)=O)CC3)cnc2Nc2cccc3[nH]ncc23)n1 [Example 36, N-(3-(4-amino-6-methyl-1,3,5-triazin-2-yl)-5-((4-(methylsulfonyl)piperazin-1-yl)methyl)pyridin-2-yl)-1H-indazol-4-amine] | 0.004 | 0.022 |
| Cc1nc(N)nc(-c2cc(CN3CCN(S(C)(=O)=O)CC3)cnc2Nc2cncnc2)n1 [Example 38, 4-Methyl-6-(5-((4-(Methylsulfonyl)Piperazin-1-yl)Methyl)-2-(Pyrimidin-5-Ylamino)Pyridin-3-yl)-1,3,5-Triazin-2-Amine] | 0.017 | 0.145 |
| Cc1nc(N)nc(-c2cc(CN3CCN(S(C)(=O)=O)CC3)cnc2Nc2ccc3ncoc3c2)n1 [Example 39, N-(3-(4-Amino-6-Methyl-1,3,5-Triazin-2-yl)-5-((4-(Methylsulfonyl)Piperazin-1-yl)Methyl)Pyridin-2-yl)Benzo[D]Oxazol-6-Amine] | 0.055 | 0.046 |
| COc1ccc(Nc2cnccc2-c2nc(C)nc(N)n2)cn1 [Example 115, 4-(3-(6-methoxypyridin-3-ylamino)pyridin-4-yl)-6-methyl-1,3,5-triazin-2-amine] | 0.868 |  |
| COc1ccc(Nc2ncncc2-c2nc(C)nc(N)n2)cn1 [Example 117, 4-(4-(6-methoxypyridin-3-ylamino)pyrimidin-5-yl)-6-methyl-1,3,5-triazin-2-amine] | 0.018 |  |
| COc1ccc(Nc2ccccc2-c2nc(C)nc(N)n2)cn1 [Example 239, 4-(2-(6-Methoxypyridin-3-Ylamino)Phenyl)-6-Methyl-1,3,5-Triazin-2-Amine] | 0.396 |  |
| COc1ncc(Nc2ncccc2-c2nc(C)nc(N)n2)cc1F [Example 246, 4-(2-(5-Fluoro-6-Methoxypyridin-3-Ylamino)Pyridin-3-yl)-6-Methyl-1,3,5-Triazin-2-Amine] | 0.019 |  |
| COc1ncc(Nc2ncc(C(C)(C)O)cc2-c2nc(C)nc(N)n2)cc1F [Example 273, 2-(5-(4-Amino-6-Methyl-1,3,5-Triazin-2-yl)-6-(5-Fluoro-6-Methoxypyridin-3-Ylamino)Pyridin-3-yl)Propan-2-ol] | 0.004 |  |
| COc1ncc(Nc2ncc(C(C)CO)cc2-c2nc(C)nc(N)n2)cc1F (stereo not drawn) [Example 312, 2-(5-(4-amino-6-methyl-1,3,5-triazin-2-yl)-6-(5-fluoro-6-methoxypyridin-3-ylamino)pyridin-3-yl)propan-1-ol] | 0.002 |  |
| COc1ncc(Nc2ncc(C(O)C(F)(F)F)cc2-c2nc(C)nc(N)n2)cc1F (stereo not drawn) [Example 314, 1-(5-(4-Amino-6-Methyl-1,3,5-Triazin-2-yl)-6-(5-Fluoro-6-Methoxypyridin-3-Ylamino)Pyridin-3-yl)-2,2,2-Trifluoroethanol] | 0.017 |  |
| Cc1nc(N)nc(-c2cc(CN3CCOCC3)cnc2Nc2cnc(Cl)c(NS(C)(=O)=O)c2)n1 [Example 332, N-(5-(3-(4-Amino-6-Methyl-1,3,5-Triazin-2-yl)-5-(Morpholinomethyl)Pyridin-2-Ylamino)-2-Chloropyridin-3-yl)Methanesulfonamide] | 0.004 |  |
| COc1cncc(Nc2ncc(C(C)(C)O)cc2-c2nc(C)nc(N)n2)c1 [Example 353, 2-(5-(4-Amino-6-Methyl-1,3,5-Triazin-2-yl)-6-(5-Methoxypyridin-3-Ylamino)Pyridin-3-yl)Propan-2-ol] | 0.015 |  |
| Cc1nc(N)nc(-c2cc(C(C)(C)O)cnc2Nc2cncc(S(=O)(=O)c3ccccc3)c2)n1 [Example 356, 2-(5-(4-Amino-6-Methyl-1,3,5-Triazin-2-yl)-6-(5-(Phenylsulfonyl)Pyridin-3-Ylamino)Pyridin-3-yl)Propan-2-ol] | 0.058 |  |
| Cc1nc(N)cc(-c2cc([C@H](C)N3CCOCC3)cnc2Nc2cnc(Cl)c(NS(=O)(=O)N(C)C)c2)n1 [Example 382, (S—)N-(2-Chloro-5-(3-(6-Amino-2-Methylpyrimidin-4-yl)-5-(1-Morpholinoethyl)Pyridin-2-Ylamino)Pyridin-3-yl)-N,N-Dimethylaminosulfamide] |  | 0.023 |

More lines, in order of falling Ki (PI3Kα), values ahead:

| Ki (PI3Kα) [µM] | IC50 [1] [µM] | Compound |
| --- | --- | --- |
| 3.14 |  | Nc1cc(-c2cccnc2Nc2cccc3[nH]ncc23)nc(C(F)(F)F)n1 [Example 21, N-(3-(6-Amino-2-(Trifluoromethyl)Pyrimidin-4-yl)Pyridin-2-yl)-1H-Indazol-4-Amine] |
| 0.327 |  | COc1ccc(Nc2nccnc2-c2nc(C)nc(N)n2)cn1 [Example 114, 4-(3-(6-methoxypyridin-3-ylamino)pyrazin-2-yl)-6-methyl-1,3,5-triazin-2-amine] |
| 0.16 | 0.674 | Cc1nc(N)nc(-c2cccnc2Nc2ccc(Cl)nc2)n1 [Example 54, 4-(2-(6-Chloropyridin-3-Ylamino)Pyridin-3-yl)-6-Methyl-1,3,5-Triazin-2-Amine] |
| 0.059 |  | COc1ccc(Nc2nccnc2-c2cc(N)nc(C)n2)cn1 [Example 116, 6-(3-(6-methoxypyridin-3-ylamino)pyrazin-2-yl)-2-methylpyrimidin-4-amine] |
| 0.044 | 0.02 | COc1ncc(Nc2ncc([C@H](C)N3CCOCC3)cc2-c2nc(C)nc(N)n2)cc1F (single isomer, unassigned) [Example 292] |
| 0.033 | 0.305 | COc1ccc(Nc2ncc(CNc3cccnn3)cc2-c2nc(C)nc3[nH]cnc23)cn1 [Example 80, N-((6-(6-methoxypyridin-3-ylamino)-5-(2-methyl-9H-purin-6-yl)pyridin-3-yl)methyl)pyridazin-3-amine] |
| 0.023 |  | Cc1nc(N)nc(-c2cc(C(C)(C)O)cnc2Nc2cncc(F)c2)n1 [Example 352, 2-(5-(4-Amino-6-Methyl-1,3,5-Triazin-2-yl)-6-(5-Fluoropyridin-3-Ylamino)Pyridin-3-yl)Propan-2-ol] |
| 0.008 |  | COc1ncc(Nc2ncc(C(C)(C)CO)cc2-c2nc(C)nc(N)n2)cc1F [Example 311, 2-(5-(4-amino-6-methyl-1,3,5-triazin-2-yl)-6-(5-fluoro-6-methoxypyridin-3-ylamino)pyridin-3-yl)-2-methylpropan-1-ol] |
| 0.007 |  | Cc1nc(N)nc(-c2cc(CN3CCOCC3)cnc2Nc2cnc(Cl)c(NS(=O)(=O)N(C)C)c2)n1 [Example 333, N′-(5-((3-(4-Amino-6-Methyl-1,3,5-Triazin-2-yl)-5-(4-Morpholinylmethyl)-2-Pyridinyl)Amino)-2-Chloro-3-Pyridinyl)-N,N-Dimethylsulfamide] |

— patent publication US8772480B2, “Inhibitors of PI3 kinase and/or mTOR” (priority 2009, dated 2014)
